# Laboratory results as given in patent US8551958B2, “Galactosylated pro-drugs of non-steroidal anti-inflammatories with improved pharmacokinetic characteristics and reduced toxicity of the starting drug” (Stewart Italia Srl, priority 2008, dated 2013).
# “Also recorded” adds a separate entry of the source.
# Assays:
# [1] = Chemical stability of the pro-drug (phosphate buffer pH 7.4; HCl 0.1 N pH 1), HPLC; type: physicochemical; conditions: in the dark
# Experimental: For the stability study, the solutions of pro-drug were prepared by dissolving an aliquot of Ketogal in a phosphate buffer at pH 7.4, or else in a solution of HCl 0.1 N (pH 1), as regards chemical stability, or else in a plasma specimen, for enzymatic stability. The solutions were kept in the dark, at a temperature of 37° C., for 24 hours. After each hour an aliquot of specimen was taken. In the case of plasma, said aliquot was previously extracted with acetonitrile (1:2), “vortexed” and centrifuged at 3000 r.p.m. for 10 min. The supernatant was taken and used for analysis at HPLC with diode detector. The half-lives for chemical stability and enzymatic stability were calculated by quantizing, in time, the percentage of pro-drug that remained in solution. For the chromatographic separations, a 1090L HPLC (Hewlett-Packard, Palo Alto, USA) was used, coupled to a diode detector HP 1040A. A Phenomenex Luna C18 (250×4.6 mm, 5 μm) column was used. The wavelength used was 313 nm. The mobile phase was constituted by acetonitrile and an aqueous solution of phosphoric acid […] (pH 3) in the ratio of 68:32. The flow was 1 mL/min, with an injection volume of 20 μl. All the reagents and the solvents used were of analytical degree. The distilled and deionized water was purified by means of a Milli Q system (Millipore). The retention times of the compounds were: ketorolac: 6.7 min; Ketogal: 3.8 min. As internal standard tolmetin was used (9.3 min). The straight line of calibration for quantification of the compounds was constructed using standard solutions with concentrations of between 0.1 and 100 μg/ml. The linearity was obtained with a coefficient of regression (R^2) of approximately 0.998.
# For the study of the stability, the solutions of pro-drug were prepared by dissolving an aliquot of Flugal in a phosphate buffer at pH 7.4, as regards chemical stability, or else in a plasma specimen, for enzymatic stability. The solutions were kept in the dark, at a temperature of 37° C., for 24 hours. After each hour an aliquot of specimen was taken. In the case of the plasma said amount was previously extracted with acetonitrile (1:2), “vortexed”, and centrifuged at 3000 r.p.m. for 10 min. The supernatant was taken and used for analysis at HPLC with diode detector. The half-lives for the chemical stability and enzymatic stability were calculated by quantizing, in time, the percentage of pro-drug that remained in solution. A 1090L HPLC (Hewlett-Packard, Palo Alto, USA) coupled to a diode detector HP 1040A was used for the chromatographic separations. The column used was a Supelcosil LC-18, 250×4.6 mm, particle size […]. The volume injected was […] and the flow of 1 mL/min. The mobile phase was constituted by a mixture of aqueous CH3CN/H3PO4 1 mM (pH 3) [32:68]. For the quantitative determination reading was made at 250 nm. The retention times of the various compounds involved in the analysis were: for Flugal 6 min and for flurbiprofen 11 min. All the reagents and the solvents used were of analytical degree. The distilled and deionized water was purified by means of a Milli Q system (Millipore). The straight line of calibration for the quantification of the compounds was constructed using standard solutions with concentrations of between 0.1 and 100 μg/ml. Linearity was obtained with a coefficient of regression (R^2) of approximately 0.998. From the results of said analysis (illustrated in Table 3) it emerges that the pro-drug Flugal has a good chemical stability and a good susceptibility to enzymatic hydrolysis.
# Chemical stability was assessed also at pH 1.0 in a solution of HCl 0.1N as described.
# For the stability study, the solutions of pro-drug were prepared by dissolving an aliquot of Okigal in a phosphate buffer at pH 7.4, or else in a solution of HCl 0.1 N (pH 1), as regards chemical stability, or else in a plasma specimen, for enzymatic stability. The solutions were kept in the dark, at a temperature of 37° C., for 24 hours. […]
# [2] = test system: male Swiss mice; assay: Ulcerogenicity studies, ketorolac and Ketogal (gastric lesions); type: in vivo; conditions: oral, Ketogal 16.3 mg/kg
# Experimental: The gastric lesions were evaluated in male Swiss mice. To the fasted animals (16-18 h) were administered, by oral route, ketorolac (10 mg/kg), Ketogal (16.3 mg/kg), or the vehicle. After 4 hours, the mice were sacrificed and the stomach removed, cut along the major curvature, washed with physiological solution, and the mucous was examined for evaluation of the presence of petechias and/or gastric lesions. A “score” of 1 was assigned to the petechias, and a “score” based on the diameter (a “score” of 5 for lesions of a diameter of less than 1 mm; a “score” of 10 for lesions with a diameter of more than 1 mm) was, instead, assigned to the lesions.
# [3] = Pharmacokinetic studies (plasma, stomach, kidney, liver); type: in vivo, Wistar rats
# Experimental: The pharmacokinetic profile of Ketogal and of ketorolac was evaluated in Wistar rats by measuring the concentration of the two compounds in the plasma, in the stomach, in the kidney, and in the liver. The rats received ketorolac (0.100 mg/kg) or Ketogal (0.163 mg/kg) by oral route and were sacrificed after 1 h, 2 h, 4 h, and 6 h from administration. The various specimens were treated with acetonitrile, and the suspension was “vortexed” and centrifuged at 3000 r.p.m. for 10 min. The organic phase was injected in the same HPLC system used for the stability assays.
# [4] = test system: writhing induced by acetic acid; assay: Writhing test induced by acetic acid; type: in vivo, mice
# Experimental: The analgesic activity was studied using the “writhing test” using acetic acid and using magnesium sulphate. To the mice there was administered by intraperitoneal route 1 mL of solution at 1% of acetic acid, and the number of writhing events was evaluated for 20 min, after 5 min from administration of the solution of acetic acid. Writhing is defined as a contraction of the abdominal muscles accompanied by elongation of the body and of the rear legs. Ketorolac and Ketogal were administered by oral route 60 min prior to administration of the solution of acetic acid. The analgesic effect is expressed in number of writhing events as compared to the control.
# [5] = test system: TNF-alpha; assay: Western blot in liver lysates, TNF-alpha; type: in vivo, mice; conditions: ketogal 16.3 mg/Kg oral for 3, 5 and 7 days
# Experimental: (§1) Animals were sacrificed and then liver, stomach and kidney were collected in glass tubes and analysed histologically and biochemically.
# Liver samples were fixed in 10% buffered formalin and embedded in paraffin, sliced, and stained with hematoxylin & eosin (H&E) for assessment of liver pathology. […] To confirm histological data, western blot analysis for TNF-alpha, IL-6 and malonyldialdehyde assay were then performed in liver lysates.
# [6] = test system: COX-1; assay: Western blot, stomach, COX-1 protein expression; type: in vivo, mice; conditions: ketorolac 10 mg/Kg, ketogal 16.3 mg/Kg, oral, 3, 5 and 7 days; versus control stomachs
# Description: as §1
smiles,measurement,setting,value
"O=C(c1ccccc1)c1ccc2n1CC[C@@H]2C(=O)OCC1O[C@H](O)C(O)C(O)[C@H]1O (mixture of isomers) [Ketogal, ketorolac-D-galactos-6′-yl ester]",pH 7.4 T½,"[1]; phosphate buffer at pH 7.4, 37° C.",>4 hours
same,pH 1 T½,"[1]; solution of HCl 0.1 N (pH 1), 37° C.",2.1 hours
same,Gastrolesive properties (in words),[2]; equimolar to ketorolac 10 mg/kg,"does not cause ulcers; also recorded: only a slight irritation of the gastric mucosa, with an almost total absence of ulcers"
same,Degree of ulcerogenicity,"[2]; ketorolac 10.0 mg/kg, after 4 hours, score 1 petechias, 5 or 10 lesions",1
same,Number of ulcers,"[2]; ketorolac 10.0 mg/kg, fasted mice, after 4 hours",1 ± 0.4
same,Oral availability,[3]; compared with ketorolac,better oral availability than ketorolac; also recorded: increased the oral availability of ketorolac
same,Behaviour of the pro-drug in the stomach,"[3]; oral, Ketogal 0.163 mg/kg","hydrolyses progressively, releasing ketorolac"
same,Presence of the pro-drug in plasma,"[3]; oral, Ketogal 0.163 mg/kg",the pro-drug was not present
same,Presence of the pro-drug in the kidney,"[3]; oral, Ketogal 0.163 mg/kg",no traces of the pro-drug
same,Presence of the pro-drug in the liver,"[3]; oral, Ketogal 0.163 mg/kg",Ketogal reappeared
same,Concentration of ketorolac in the liver after Ketogal versus drug alone,"[3]; oral, Ketogal 0.163 mg/kg versus ketorolac 0.100 mg/kg",always higher following upon administration of Ketogal
same,Plasma levels of ketorolac after administration of Ketogal versus ketorolac as such,"[3]; oral, Ketogal 0.163 mg/kg, ketorolac 0.100 mg/kg, 1 h, 2 h, 4 h, 6 h",higher than the ones observed following upon administration of the drug as such
same,Analgesic activity compared with ketorolac,"[4]; Ketogal 0.163 mg/kg versus ketorolac 0.1 mg/kg, oral and subcutaneous administration",better analgesic and anti-inflammatory activity than ketorolac
same,Analgesic effect (number of writhing events compared to control),"[4]; oral, 60 min prior to acetic acid, ketorolac 0.01-10 mg/kg, Ketogal 0.0163-16.3 mg/kg",dose-dependent analgesic effect of higher than 0.163 mg/kg
same,TNF-alpha level in liver,[5],no different compared to control mice
same,Gastric COX-1 protein expression,[6],not inhibited
